Data on one compound can be found in patent US20190167579A1, “ITRACONAZOLE DRY POWDERS” (priority 2017, published 2019).

The subject of this series is Calu-3 cell line. The series is described as follows: cNGI integrated dissolution and permeability on Calu-3 monolayers. In kind it is in vitro ADME. The protocol:
A bio-relevant dissolution testing system was used based on mimicking the air-liquid interface at the respiratory epithelium interface using a cell-based in vitro method. A modified next generation impactor that incorporated cell culture plates onto collection stages (cNGI) was used to uniformly deposit materials onto the cell cultures. Dissolution and permeation of the drug through the epithelial cell monolayer was measured.
Epithelial cell monolayers grown at the air-liquid interface in Snapwell™ (Corning Costar, Massachusetts, USA) permeable insert were integrated into the cNGI. […] The transepithelial electrical resistance (TEER) was measured using an EVOM2 chopstick electrode connected to an EVOM2 Epithelial Voltohmmeter (World Precision Instruments, Hitchin, United Kingdom) and monolayers with a TEER above 450 Ω·cm^2 were deemed confluent. […]
Post-dosing of the dose on to the Snapwells from stage 4, the Snapwells were transferred to 6-well plates, which contained 2mL of PBS pH 7.4±2.0% SDS maintained at 37° C. Basolateral samples were taken at different time points and drug content was measured on an Agilent (Santa Clara, Calif., USA) 1260 Infinity series HPLC. Total dose delivered to the cells was measured from the total amount of drug dissolved over the time-course and from lysing cells post experimentation. […]

Turning to `CCC(C)n1ncn(-c2ccc(N3CCN(c4ccc(OCC5COC(Cn6cncn6)(c6ccc(Cl)cc6Cl)O5)cc4)CC3)cc2)c1=O` (stereo not shown) [Pure ITZ, Itraconazole], the “Dissolution and permeability kinetics, comparison” value was “slower”.
